Measured values from paper PMC12426930, “Antioxidant, Hypotensive, and Antidiabetic Breakthroughs: Bromelain Hydrolysis Unlocks Quinoa’s Peptide Potential - In Silico and In Vitro Approach” (Journal of Agricultural and Food Chemistry, 2025).
Marks after values point to notes of the source that are not given here.

Columns and labels:
[1] = test system: DPP-IV; design: method as in Vilcacundo et al. [40]; conditions: 250 μM; ref Vilcacundo et al. [40]; cited from earlier work
[2] = test system: α-glucosidase; conditions: 250 μM; ref Vilcacundo et al. [40]; cited from earlier work
Source text: The inhibitory effects of quinoa-derived peptides (YDDER, NIYQIS, and QDQHQKIR) toward α-glucosidase are depicted in Table .

[3] = test system: α-amylase; conditions: ref Zhou et al. [70]; cited from earlier work
Source text: As α-amylase plays a significant role in T2DM, this study investigated the inhibitory effects of synthetic quinoa peptides on this enzyme.

[4] = test system: porcine pancreatic α-amylase (PPA); experiment: α-Amylase inhibition; type: biochemical; conditions: CNPG3 substrate, 405 nm, 37 °C, mean ± SD, n = 9
Experimental: α-Amylase inhibition activity was performed using the 3,5-dinitrosalicylic acid (DNS) assay according to Zulfiqar et al. […] Then, 50 μL of substrate (2-chloro-4-nitro-[…] (CNPG3) (2 mM)) was added per well. Finally, absorbance was recorded at 405 nm (SPARK-10M, TECAN, Switzerland) at 37 °C for 10 min in 1-min intervals. The percentage of enzyme inhibition was calculated in relation to 100% enzymatic activity in the negative control (phosphate-buffered saline (PBS) buffer, enzyme, and substrate).

[5] = test system: rat intestinal acetone α-glucosidase; experiment: α-Glucosidase inhibition; type: biochemical
Experimental: α-Glucosidase inhibition assay was measured following the method of Vilcacundo et al., with slightly modifications. First, 100 μL of sample ([…]), positive control (1 mM acarbose), and/or negative control (Milli-Q-water), were added to 50 μL of rat intestinal acetone α-glucosidase (1 U/mL in 0.1 M, maleate buffer pH 6.9), and the mixture was incubated at 37 °C for 5 min. Then, 50 μL of substrate (2 mM maltose) was added into each tube, which was performed in a Thermomixer (37 °C, 1000 rpm, for 30 min). Finally, the reaction was stopped at 100 °C for 5 min. The glucose concentration in the reaction was measured using GOPOD (glucose oxidase/peroxidase) from Megazyme, with absorbance measured at 560 nm (Gen5 software, version 1.1, BioTek Instruments, Winooski, VT, USA). The percentage of inhibition was calculated relative to the non-inhibited control (negative control).

[6] = test system: human DPP-IV; experiment: DPP-IV inhibitory activity; type: biochemical; conditions: H-Gly-Pro-pNA, 37 °C, mean ± SD, n = 9
Experimental: Dipeptidyl peptidase-IV (DPP-IV) inhibitory activity was measured following the method by Vilcacundo et al., with slightly modifications. […] For the negative control 70 μL of Tris Buffer was added. Finally, 100 μL of substrate (H-Gly-Pro-pNA, 100 mM) was added to all wells. The reaction was performed at 37 °C in the microplate reader (BioTek Instruments, Winooski, VT, USA), and the reaction was read at 405 nm for 30 min, with reading intervals of 2 min. Finally, data were plotted and fitted to a logarithmic regression to obtain dose–response curves.

[7] = Oxygen radical absorbance capacity (ORAC) assay; conditions: AAPH, fluorescein, 37 °C, 150 min
Experimental: Oxygen radical absorbance capacity (ORAC) assay was performed following the method of Carvalho-Oliveira et al. Briefly, 30 μL of peptide (different concentrations 50–1000 μM) or standard (Trolox at 0–160 μM) were placed in a black 96-well plate. The reaction mixture comprised 180 μL of fluorescein (116.9 nM) and 90 μL of 2,2’-azobis(2-amidinopropane) dihydrochloride (AAPH) (40 mM). Finally, the fluorescence was recorded every 2 min for 150 min at excitation and emission wavelengths of 485 and 520 nm, respectively. All reactions were performed at 37 °C. The results were expressed as μmol Trolox equivalent (TE)/μmol of peptide. Quantification and interpretation of the data were done by Gen5 software, version 1.1 (BioTek Instruments, Winooski, VT, USA).

[8] = Cu^2+ chelation assay; conditions: pyrocatechol violet, pH 6.0, 37 °C, 10 min, mean ± SD, n = 9
Experimental: Cu^2+ chelation assay was determined according to Sanchez-Velazquez et al., with slight modifications. Briefly, 21 μL of sample (synthetic peptides, […]) or positive control (EDTA, 0.1 μg/μL) was added to 185 μL of buffer (sodium acetate, 50 mM, pH 6.0), and then 15 μL of copper solution (10 μg) and 9 μL of pyrocatechol violet (2 mM) were added for the reaction. For the blank well, 205 μL of buffer was added to the copper and pyrocatechol violet reaction mixture. The reaction was incubated for 10 min at 37 °C and then read at 632 nm (SPARK-10M, TECAN, Switzerland). Cu^2+ chelating activity was calculated as: %Chelatingactivity=Abscontrol−Abssample/Abscontrol×100

[9] = Fe^2+ chelation assay; conditions: 125 μM; ferrozine, pH 4.9, 37 °C, 10 min; mean ± SD, n = 9
Experimental: Fe^2+ chelation assay was measured according to Sanchez-Velazquez et al. with slightly modifications. 25 μL of sample (synthetic peptides, […]) or positive control (EDTA, 0.1 μg/μL) was added to 225 μL of buffer (sodium acetate, 100 mM, pH 4.9), then 15 μL of iron solution (0.1%, w/v) and 9 μL of ferrozine (40 mM) were added to start the reaction. For the blank well, 250 μL of buffer was added to the iron solution and ferrozine. The reaction was incubated 10 min at 37 °C and then read at 562 nm (SPARK-10M, TECAN, Switzerland). Fe^2+ chelating activity was calculated as described previously for copper.

[10] = test system: 15-LOX enzyme (soybean lipoxygenase); experiment: Lipoxygenase inhibitor screening assay (LOX); type: biochemical; conditions: 31.25 μM; linoleic acid 1 mM, RT, 490 nm
Experimental: Lipoxygenase inhibitory activity assay (LOX) was determined following the manufacturer’s instructions (#760700). Thus, peptide concentrations (31.25–125 μM) were prepared with the assay buffer and tested in triplicate. First, 10 μL of the peptides at each concentration was mixed with 90 μL of 15-LOX enzyme (soybean lipoxygenase) in a 96-well plate. Then, three wells each contained assay buffer as blank (without enzyme), assay buffer as vehicle (with enzyme), and 15-LOX as positive control. Afterward, 10 μL of linoleic acid (1 mM) (substrate) was added to all wells and shaken for 10 min at RT. Finally, 100 μL of chromogen was added to all wells, and the plate was sealed and shaken for an additional 5 min at RT. The final reaction was measured at 490 nm, and the percentage of inhibition was calculated as. %inhibition=[1−Correctedvaluesofpeptide/Correctedvaluesofvehicle]×100

[11] = test system: angiotensin I converting enzyme; experiment: ACE-I inhibitory activity (fluorometric kit CS0002); type: biochemical; conditions: fluorometric kit, 37 °C, mean ± SD, n = 9
Experimental: ACE-I inhibitory assay was determined by ACE-I activity assay kit (fluorometric, CS0002). This assay is based on the hydrolysis of angiotensin I by ACE to yield angiotensin II. Briefly, all reagents were diluted in the assay buffer, and a total of 50 μL of peptide sample, positive control (captopril PHR1307), and assay buffer (blank) were added to a 96-well black plate. The standard was added at 0, 0.1, 0.2, 0.3, 0.4, 0.5, 0.6, and 0.8 nmol and adjusted to a final volume of 100 μL. […] Finally, fluorescence (λex, 320 nm; λem, 405 nm) was measured in five cycles for 5 min. Linear regressions were determined to calculate the enzymatic activity for each sample per concentration. Thus, one unit was defined as the amount of enzyme that releases 1 nmol of fluorescent substrate in 1 min at 37 °C. Finally, the inhibition (%) of each peptide and positive control was determined using regression analysis of the corresponding dose–response curves.

[12] = ref Zheng et al. [24]; cited from earlier work
Source text: (§1) Yudho-Sutopo et al. reported the ACE-I inhibitory activity of four synthetic peptides from pearl garlic (DHSTAVW, KLAKVF, KLSTAASF, and KETPEAHVF). […] According to Yudho-Sutopo et al., the hydrophobic amino acid in the C-terminal and amino acids with a positively charged side-chain amino group, like in DHSTAVW, are determinants in the inhibition of ACE-I. Furthermore, a study by Zheng et al. reported an ACE-I inhibitory peptide – RGQVIYVL – from Chenopo ...

[13] = test system: ACE-I; conditions: Chenopodium quinoa Willd peptide; ref Zheng et al. [24]; read-out: ACE-I inhibition IC50; cited from earlier work
Source text: as §1

IQAQGGLT [DPP-IV quinoa-derived peptide reported by Vilcacundo et al]
DPP-IV inhibition [1]: 17.05%

IQEGGLT [quinoa-derived peptide reported by Vilcacundo et al]
α-glucosidase inhibition [2]: 55.85%

MMFPH [quinoa-derived peptide reported by Zhou et al]
α-amylase inhibition [3]: stronger α-amylase inhibition

QDQHQKIR [quinoa 11S globulin peptide, custom-synthesized by GenScript, purity 95%]
α-amylase inhibition ([4]; 300 μM): 18.43 ± 0.33^a %
inhibition ([4]; 400 μM): 15.6 ± 0.34%
α-amylase inhibition ([4]; 500 μM): 15.37 ± 0.35^b %
α-glucosidase inhibition ([5]; 300 μM, 2 mM maltose, pH 6.9, 37 °C, mean ± SD, n = 9): ND (no inhibitory effect was observed at the given concentration)
α-glucosidase inhibition ([5]; 400 μM, 2 mM maltose, pH 6.9, 37 °C, mean ± SD, n = 9): ND (no inhibitory effect was observed at the given concentration)
α-glucosidase inhibition ([5]; 500 μM, 2 mM maltose, pH 6.9, 37 °C, mean ± SD, n = 9): ND (no inhibitory effect was observed at the given concentration)
α-glucosidase inhibition ([5]; any of the tested concentrations (100–500 μM)): did not present any α-glucosidase inhibition
DPP-IV inhibition ([6]; 125 μM): ND (no inhibitory effect was observed at the given concentration)
DPP-IV inhibition ([6]; 250 μM): ND (no inhibitory effect was observed at the given concentration)
DPP-IV inhibition ([6]; 500 μM): 5.26 ± 0.30^c %
ORAC [7]: 0.02 μmol TE/μmol peptide
ORAC ([7]; mean ± SD, n = 9): 0.02 ± 0.00^c μM TE/μM Peptide
Cu^2+ chelating activity ([8]; 15.62 μM): 39.79 ± 1.4%
Cu^2+ chelating activity ([8]; 31.25 μM): 37.46 ± 0.26%
Cu^2+ chelating activity ([8]; 62.5 μM): 40.8 ± 0.31%
Fe^2+ chelating activity [9]: 5.11 ± 1.0%
LOX inhibition [10]: 8.44%
ACE-I inhibition ([11]; 125 μM): 6.8 ± 0.56^f %
inhibition ([11]; 250 μM): 9.75 ± 0.21%

RGQVIYVL
hydrophobic residue content [12]: 62.50%
IC50 [13]: 38.2 µM
